Test results published in US11053204B2, “Pyrimidinyloxy benzene derivatives as herbicides” (FMC Corporation, priority 2015, dated 2021).

What was measured:
Assay type in all cases: in vivo
[1] = test system: ragweed (common ragweed, Ambrosia elatior); assay: Test A preemergence, visual injury rating; settings: 0 to 100 scale (0 no effect, 100 complete control)
Text: (§1) Seeds of plant species selected from barnyardgrass (Echinochloa crus-galli), kochia (Kochia scoparia), ragweed (common ragweed, Ambrosia elatior), Italian ryegrass (Lolium multiflorum), large (Lg) crabgrass (Digitaria sanguinalis), giant foxtail (Setaria faberii), morningglory (Ipomoea spp.), pigweed (Amaranthus retroflexus), velvetleaf (Abutilon theophrasti), wheat (Triticum aestivum), and corn (Zea mays) were planted into a blend of loam soil and sand and treated preemergence with a directed soil spray using test chemicals formulated in a non-phytotoxic solvent mixture which included a surfactant.
(§2) At the same time, plants selected from these crop and weed species and also blackgrass (Alopecurus myosuroides), and galium (catchweed bedstraw, Galium aparine) were planted in pots containing the same blend of loam soil and sand and treated with postemergence applications of test chemicals formulated in the same manner. Plants ranged in height from 2 to 10 cm and were in the one- to two-leaf stage for the postemergence treatment. Treated plants and untreated controls were maintained in a greenhouse for approximately 10 days, after which time all treated plants were compared to untreated controls and visually evaluated for injury. Plant response ratings, summarized in Table A, are based on a 0 to 100 scale where 0 is no effect and 100 is complete control. A dash (-) response means no test result.

[2] = test system: Italian ryegrass (Lolium multiflorum); assay: Test A preemergence, visual injury rating; settings: 0 to 100 scale (0 no effect, 100 complete control)
Text: as §1, §2

[3] = test system: pigweed (Amaranthus retroflexus); assay: Test A preemergence, visual injury rating; settings: 0 to 100 scale (0 no effect, 100 complete control)
Text: as §1, §2

[4] = test system: barnyardgrass (Echinochloa crus-galli); assay: Test A preemergence, visual injury rating; settings: 0 to 100 scale (0 no effect, 100 complete control)
Text: as §1, §2

[5] = test system: giant foxtail (Setaria faberii); assay: Test A preemergence, visual injury rating; settings: 0 to 100 scale (0 no effect, 100 complete control)
Text: as §1, §2

kochia (Kochia scoparia) [6] = assay: Test A preemergence, visual injury rating; settings: 0 to 100 scale (0 no effect, 100 complete control)
Text: as §1, §2

[7] = test system: ragweed (common ragweed, Ambrosia elatior); assay: Test A postemergence, visual injury rating; settings: 0 is no effect, 100 is complete control
Text: as §1, §2

[8] = test system: Italian ryegrass (Lolium multiflorum); assay: Test A postemergence, visual injury rating; settings: 0 is no effect, 100 is complete control
Text: as §1, §2

[9] = test system: wheat (Triticum aestivum); assay: Test A postemergence, visual injury rating; settings: 0 is no effect, 100 is complete control
Text: as §1, §2

[10] = test system: pigweed (Amaranthus retroflexus); assay: Test A postemergence, visual injury rating; settings: 0 is no effect, 100 is complete control
Text: as §1, §2

[11] = test system: barnyardgrass (Echinochloa crus-galli); assay: Test A postemergence, visual injury rating; settings: 0 is no effect, 100 is complete control
Text: as §1, §2

[12] = test system: giant foxtail (Setaria faberii); assay: Test A postemergence, visual injury rating; settings: 0 is no effect, 100 is complete control
Text: as §1, §2

kochia (Kochia scoparia) [13] = assay: Test A postemergence, visual injury rating; settings: 0 is no effect, 100 is complete control
Text: as §1, §2

[14] = test system: galium (catchweed bedstraw, Galium aparine); assay: Test A postemergence, visual injury rating; settings: 0 is no effect, 100 is complete control
Text: as §1, §2

corn (Zea mays) = assay: Test A postemergence, visual injury rating; settings: 0 is no effect, 100 is complete control
Text: as §1, §2

[15] = test system: blackgrass (Alopecurus myosuroides); assay: Test A postemergence, visual injury rating; settings: 0 is no effect, 100 is complete control
Text: as §1, §2

| Compound | Ragweed plant response rating ([1]; 125 g ai/ha) | Ragweed plant response rating ([1]; 500 g ai/ha) | Ryegrass, Italian plant response rating ([2]; 125 g ai/ha) | Ryegrass, Italian plant response rating ([2]; 500 g ai/ha) | Pigweed plant response rating ([3]; 125 g ai/ha) | Pigweed plant response rating ([3]; 500 g ai/ha) | Barnyardgrass plant response rating ([4]; 125 g ai/ha) | Barnyardgrass plant response rating ([4]; 500 g ai/ha) | Foxtail, Giant plant response rating ([5]; 500 g ai/ha) | Kochia plant response rating (kochia (Kochia scoparia) [6]; 500 g ai/ha) | Ragweed plant response rating (0 to 100 scale) ([7]; 500 g ai/ha) | Ryegrass, Italian plant response rating (0 to 100 scale) ([8]; 500 g ai/ha) | Wheat plant response rating (0 to 100 scale) ([9]; 500 g ai/ha) | Pigweed plant response rating (0 to 100 scale) ([10]; 500 g ai/ha) | Barnyardgrass plant response rating (0 to 100 scale) ([11]; 500 g ai/ha) | Foxtail, Giant plant response rating (0 to 100 scale) ([12]; 500 g ai/ha) | Kochia plant response rating (0 to 100 scale) (kochia (Kochia scoparia) [13]; 500 g ai/ha) | Galium plant response rating (0 to 100 scale) ([14]; 500 g ai/ha) | Corn plant response rating (0 to 100 scale) (corn (Zea mays); 500 g ai/ha) | Blackgrass plant response rating (0 to 100 scale) ([15]; 500 g ai/ha) | other results |
| --- | --- | --- | --- | --- | --- | --- | --- | --- | --- | --- | --- | --- | --- | --- | --- | --- | --- | --- | --- | --- | --- |
| N#CCOC(=O)c1c(C#N)cccc1Oc1ncc(Cl)cn1 [Compound 39] | 0 | 0 | 0 | 0 | 0 | 0 | 0 | 0 | 0 | 0 | 0 | 0 | 0 | 0 | 0 | 0 | 0 | 0 | 0 | 0 | Foxtail, Giant plant response rating ([5]; 125 g ai/ha): 0; Kochia plant response rating (kochia (Kochia scoparia) [6]; 125 g ai/ha): 0; Ragweed plant response rating (0 to 100 scale) ([7]; 125 g ai/ha): 0; Ryegrass, Italian plant response rating (0 to 100 scale) ([8]; 125 g ai/ha): 0; Wheat plant response rating (0 to 100 scale) ([9]; 125 g ai/ha): 0; Pigweed plant response rating (0 to 100 scale) ([10]; 125 g ai/ha): 0; Barnyardgrass plant response rating (0 to 100 scale) ([11]; 125 g ai/ha): 0; Foxtail, Giant plant response rating (0 to 100 scale) ([12]; 125 g ai/ha): 0; Kochia plant response rating (0 to 100 scale) (kochia (Kochia scoparia) [13]; 125 g ai/ha): 0; Galium plant response rating (0 to 100 scale) ([14]; 125 g ai/ha): 0; Corn plant response rating (0 to 100 scale) (corn (Zea mays); 125 g ai/ha): 0; Blackgrass plant response rating (0 to 100 scale) ([15]; 125 g ai/ha): 0 |
| N#Cc1cnc(Oc2cccc(Br)c2C(=O)OCC(F)(F)F)nc1 [Compound 31] | 0 | 0 | 0 | 0 | 0 | 0 | 0 | 0 | 0 | 0 | 0 | 0 | 0 | 0 | 0 | 0 | 0 | 0 | 0 | 0 | Foxtail, Giant plant response rating ([5]; 125 g ai/ha): 0; Kochia plant response rating (kochia (Kochia scoparia) [6]; 125 g ai/ha): 0; Ragweed plant response rating (0 to 100 scale) ([7]; 125 g ai/ha): 0; Ryegrass, Italian plant response rating (0 to 100 scale) ([8]; 125 g ai/ha): 0; Wheat plant response rating (0 to 100 scale) ([9]; 125 g ai/ha): 0; Pigweed plant response rating (0 to 100 scale) ([10]; 125 g ai/ha): 0; Barnyardgrass plant response rating (0 to 100 scale) ([11]; 125 g ai/ha): 0; Foxtail, Giant plant response rating (0 to 100 scale) ([12]; 125 g ai/ha): 0; Kochia plant response rating (0 to 100 scale) (kochia (Kochia scoparia) [13]; 125 g ai/ha): 0; Galium plant response rating (0 to 100 scale) ([14]; 125 g ai/ha): 0; Corn plant response rating (0 to 100 scale) (corn (Zea mays); 125 g ai/ha): 0; Blackgrass plant response rating (0 to 100 scale) ([15]; 125 g ai/ha): 0 |
| CC(C)(C)OC(=O)c1c(Br)cccc1Oc1ncc(Cl)cn1 [Compound 14] | – | 10 | – | 20 | – | 100 | – | 60 | 100 | 70 | 0 | 70 | 40 | 100 | 40 | 60 | 70 | 100 | 10 | 70 | – |
